# Experimental data: publication PMC9701179, “New tricyclic systems as photosensitizers towards triple negative breast cancer cells” (Archives of Pharmacal Research, 2022)
# Where two headings read alike, the source gives them in different places.
# Tested on: MDA-MB-231 cells
# Experiment: MTT cytotoxicity/photocytotoxicity test on human TNBC MDA-MB-231 cells
# Type: cell-based
# Conditions: Homo sapiens
# Procedure: The irradiation device used for the irradiation of cell cultures during the assays was a black box equipped with two Philips UVA lamps with an irradiance of 17 mW cm^−2 and a centered emission peak at 365 nm; UVA irradiance was measured using a Waldmann Variocontrol radiometer, equipped with a UVA sensor. The box was maintained at room temperature inside with a fan and the multiwell plates were placed onto a water-refrigerated metal block.
# Human triple negative (TNBC) breast MDA-MB-231 carcinoma cells were obtained from American Type Culture Collection (ATCC, Rockville, MD, USA). Human embryonic kidney HEK293 cells were obtained from the European Collection of Cell Cultures (ECACC, Salisbury, UK). Cell lines were maintained in the logarithmic phase at 37 °C in a 5% CO2 atmosphere using the following culture media containing 10% foetal calf serum (Euroclone, Milan, Italy), antibiotics (50 units/mL penicillin and 50 μg/mL streptomycin) and 2 mM l-glutamine: (i) RPMI-1640 medium (Euroclone, Milan, Italy) for MDA-MB-231 4 cells; (ii) DMEM (Euroclone, Milan, Italy) for HEK293 cells.
# Cells (5–8 × 10^3 cells/well, dependent upon the growth characteristics of the cell line) were seeded in 96-well microplates in growth medium (100 μL). After 24 h, the medium was removed and replaced with a fresh one containing the compound to be studied at the appropriate concentration. Triplicate cultures were established for each treatment. For photocytotoxicity studies, after 1 h of incubation the medium was replaced with PBS and cells were treated with 2.0 J cm^−2 of UVA light. After irradiation, PBS was replaced with complete proliferation media. For pre-irradiation studies, instead, compounds in PBS were irradiated with 2.0 J cm^−2 of UVA light and subsequently cells were treated with pre-irradiated solutions. Following 24 h, each well was treated with 10 μL of a 5 mg/mL MTT saline solution, and following 5 h of incubation, 100 μL of a sodium dodecyl sulfate (SDS) solution in HCl 0.01 M were added. After an overnight incubation, cell growth inhibition was detected by measuring the absorbance of each well at 570 nm using a Bio-Rad 680 microplate reader. Mean absorbance for each drug dose was expressed as a percentage of the control untreated well absorbance and plotted against drug concentration. IC50 values, the drug concentrations that reduce the mean absorbance at 570 nm to 50% of those in the untreated control wells, were calculated by the four-parameter logistic (4-PL) model. Evaluation was based on means from at least four independent experiments.
# The new synthetized pyrrolo[1,2-h][1,7]naphthyridinones 7 and pyrido[2,3-c]pyrrolo[1,2-a]azepinones 8 were screened for their cytotoxicity (in the dark) and photocitotoxicity (upon UVA light irradiation at 2.0 J/cm^2) profile on human TNBC cells, MDA-MB-231. The cytotoxicity/photocytotoxicity parameters, expressed in terms of IC50 values obtained by MTT test after 24 h of drug-exposure, are listed in Table 2.
# [1] = MDA-MB-231, in the dark, 1 h pre-treatment, recovered for total 24 h, read-out: Dark IC50 (µM) ± S.D
# [2] = light or radiation study, MDA-MB-231, 1 h pre-treatment, UVA 2.0 J/cm^2, recovered for total 24 h, read-out: UVA (2.0 J/cm^2) IC50 (µM) ± S.D
SMILES,IC50 [1] [µM],IC50 [2] [µM]
"CCOC(=O)c1ccc2n1CCc1cc(S(=O)(=O)c3ccccc3)c(OC)nc1-2 [Compound 7h, Ethyl 3-(benzenesulfonyl)-2-methoxy-5,6-dihydropyrrolo[1,2-h][1,7]naphthyridine-8-carboxylate]",> 50,4.4 ± 0.5
"CCOC(=O)c1ccc2n1CCCc1cc(S(=O)(=O)c3ccccc3)c(OC)nc1-2 [Compound 8e, Ethyl 3-(benzenesulfonyl)-2-methoxy-6,7-dihydro-5H-pyrido[2,3-c]pyrrolo[1,2-a]azepine-9-carboxylate]",> 50,15.3 ± 1.7
